Measurements published in the supplement of paper PMC8612539.
Converted amounts (≈) assume the structure as drawn.

Test system: Escherichia coli
Test: minimum inhibitory concentration (MIC)
Experimental: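 Broth microdilution MIC (Sensititre BOPO7F bovine plate, CLSI methods) of 19 antimicrobials against field isolates of P. multocida, M. haemolytica, H. somni (deep nasopharyngeal swabs) and E. coli, Enterococcus spp. (rectal swabs) from weaned dairy heifers. Incubation 16-24 h at 35 C. MIC is the lowest concentration preventing visible growth. Values with <= or > lie at the tested range limits. Trimethoprim-sulfamethoxazole is given as the trimethoprim component of a 1:19 mixture.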

CC1(C)S[C@@H]2[C@H](NC(=O)Cc3ccccc3)C(=O)N2[C@H]1C(=O)O [Penicillin]
Conditions	minimum inhibitory concentration [µg/mL]
isolate (source animal id): 8	> 8
isolate (source animal id): 9	> 8
isolate (source animal id): 10	> 8
isolate (source animal id): 11	> 8
isolate (source animal id): 12	> 8
isolate (source animal id): 13	> 8
isolate (source animal id): 14	> 8
isolate (source animal id): 15	> 8
isolate (source animal id): 16	> 8
isolate (source animal id): 98	> 8
isolate (source animal id): 99	> 8
isolate (source animal id): 100	> 8
isolate (source animal id): 101	4 (≈ 12 µM)
isolate (source animal id): 102	> 8
isolate (source animal id): 103	> 8
isolate (source animal id): 104	> 8
isolate (source animal id): 105	> 8
isolate (source animal id): 106	> 8
isolate (source animal id): 107	> 8
isolate (source animal id): 108	> 8
isolate (source animal id): 109	> 8
isolate (source animal id): 110	> 8
isolate (source animal id): 111	> 8
isolate (source animal id): 112	> 8
isolate (source animal id): 113	> 8
isolate (source animal id): 114	> 8
isolate (source animal id): 115	> 8
isolate (source animal id): 116	> 8
isolate (source animal id): 117	> 8
isolate (source animal id): 118	> 8
isolate (source animal id): 119	> 8
isolate (source animal id): 120	> 8
isolate (source animal id): 121	> 8
isolate (source animal id): 122	8 (≈ 23.9 µM)
isolate (source animal id): 123	> 8
isolate (source animal id): 124	> 8
isolate (source animal id): 125	> 8
isolate (source animal id): 126	> 8
isolate (source animal id): 127	> 8
isolate (source animal id): 128	> 8
isolate (source animal id): 129	> 8
isolate (source animal id): 130	> 8
isolate (source animal id): 131	> 8
isolate (source animal id): 132	> 8
isolate (source animal id): 133	> 8
isolate (source animal id): 134	> 8
isolate (source animal id): 135	> 8
isolate (source animal id): 136	> 8
isolate (source animal id): 137	> 8
isolate (source animal id): 138	> 8
isolate (source animal id): 139	8 (≈ 23.9 µM)
isolate (source animal id): 140	> 8
isolate (source animal id): 141	> 8
isolate (source animal id): 142	> 8
isolate (source animal id): 143	> 8
isolate (source animal id): 144	> 8
isolate (source animal id): 145	> 8
isolate (source animal id): 146	> 8
isolate (source animal id): 147	> 8
isolate (source animal id): 148	> 8
isolate (source animal id): 149	> 8
isolate (source animal id): 150	> 8
isolate (source animal id): 151	8 (≈ 23.9 µM)
isolate (source animal id): 152	> 8
isolate (source animal id): 153	> 8
isolate (source animal id): 154	> 8
isolate (source animal id): 155	> 8
isolate (source animal id): 156	> 8
isolate (source animal id): 157	> 8
isolate (source animal id): 158	> 8
isolate (source animal id): 159	> 8
isolate (source animal id): 160	> 8
isolate (source animal id): 161	> 8
isolate (source animal id): 162	> 8
isolate (source animal id): 163	> 8
isolate (source animal id): 164	> 8
isolate (source animal id): 165	> 8
isolate (source animal id): 166	> 8
isolate (source animal id): 167	> 8
isolate (source animal id): 168	> 8
isolate (source animal id): 169	> 8
isolate (source animal id): 170	> 8
isolate (source animal id): 171	> 8
isolate (source animal id): 172	> 8
isolate (source animal id): 173	> 8
isolate (source animal id): 174	> 8
isolate (source animal id): 175	> 8
isolate (source animal id): 176	> 8
isolate (source animal id): 177	> 8
isolate (source animal id): 178	> 8
isolate (source animal id): 179	> 8
isolate (source animal id): 180	> 8
isolate (source animal id): 181	> 8
isolate (source animal id): 182	> 8
isolate (source animal id): 183	> 8
isolate (source animal id): 184	> 8
isolate (source animal id): 185	> 8
isolate (source animal id): 186	> 8
isolate (source animal id): 187	> 8
isolate (source animal id): 188	> 8

CN[C@@H]1[C@H](O)[C@H](NC)[C@H]2O[C@@]3(O)C(=O)C[C@@H](C)O[C@H]3O[C@@H]2[C@H]1O [Spectinomycin]
Conditions	minimum inhibitory concentration [µg/mL]
isolate (source animal id): 8	16 (≈ 48.1 µM)
isolate (source animal id): 9	> 64
isolate (source animal id): 10	64 (≈ 193 µM)
isolate (source animal id): 11	16 (≈ 48.1 µM)
isolate (source animal id): 12	32 (≈ 96.3 µM)
isolate (source animal id): 13	16 (≈ 48.1 µM)
isolate (source animal id): 14	> 64
isolate (source animal id): 15	16 (≈ 48.1 µM)
isolate (source animal id): 16	16 (≈ 48.1 µM)
isolate (source animal id): 98	16 (≈ 48.1 µM)
isolate (source animal id): 99	16 (≈ 48.1 µM)
isolate (source animal id): 100	≤ 8
isolate (source animal id): 101	> 64
isolate (source animal id): 102	16 (≈ 48.1 µM)
isolate (source animal id): 103	> 64
isolate (source animal id): 104	16 (≈ 48.1 µM)
isolate (source animal id): 105	16 (≈ 48.1 µM)
isolate (source animal id): 106	32 (≈ 96.3 µM)
isolate (source animal id): 107	16 (≈ 48.1 µM)
isolate (source animal id): 108	16 (≈ 48.1 µM)
isolate (source animal id): 109	16 (≈ 48.1 µM)
isolate (source animal id): 110	≤ 8
isolate (source animal id): 111	16 (≈ 48.1 µM)
isolate (source animal id): 112	16 (≈ 48.1 µM)
isolate (source animal id): 113	16 (≈ 48.1 µM)
isolate (source animal id): 114	16 (≈ 48.1 µM)
isolate (source animal id): 115	> 64
isolate (source animal id): 116	16 (≈ 48.1 µM)
isolate (source animal id): 117	> 64
isolate (source animal id): 118	16 (≈ 48.1 µM)
isolate (source animal id): 119	> 64
isolate (source animal id): 120	> 64
isolate (source animal id): 121	> 64
isolate (source animal id): 122	> 64
isolate (source animal id): 123	16 (≈ 48.1 µM)
isolate (source animal id): 124	> 64
isolate (source animal id): 125	> 64
isolate (source animal id): 126	> 64
isolate (source animal id): 127	> 64
isolate (source animal id): 128	> 64
isolate (source animal id): 129	16 (≈ 48.1 µM)
isolate (source animal id): 130	> 64
isolate (source animal id): 131	16 (≈ 48.1 µM)
isolate (source animal id): 132	16 (≈ 48.1 µM)
isolate (source animal id): 133	> 64
isolate (source animal id): 134	16 (≈ 48.1 µM)
isolate (source animal id): 135	16 (≈ 48.1 µM)
isolate (source animal id): 136	16 (≈ 48.1 µM)
isolate (source animal id): 137	16 (≈ 48.1 µM)
isolate (source animal id): 138	> 64
isolate (source animal id): 139	> 64
isolate (source animal id): 140	16 (≈ 48.1 µM)
isolate (source animal id): 141	> 64
isolate (source animal id): 142	16 (≈ 48.1 µM)
isolate (source animal id): 143	> 64
isolate (source animal id): 144	16 (≈ 48.1 µM)
isolate (source animal id): 145	> 64
isolate (source animal id): 146	16 (≈ 48.1 µM)
isolate (source animal id): 147	> 64
isolate (source animal id): 148	16 (≈ 48.1 µM)
isolate (source animal id): 149	16 (≈ 48.1 µM)
isolate (source animal id): 150	> 64
isolate (source animal id): 151	16 (≈ 48.1 µM)
isolate (source animal id): 152	16 (≈ 48.1 µM)
isolate (source animal id): 153	16 (≈ 48.1 µM)
isolate (source animal id): 154	16 (≈ 48.1 µM)
isolate (source animal id): 155	> 64
isolate (source animal id): 156	> 64
isolate (source animal id): 157	> 64
isolate (source animal id): 158	16 (≈ 48.1 µM)
isolate (source animal id): 159	≤ 8
isolate (source animal id): 160	> 64
isolate (source animal id): 161	> 64
isolate (source animal id): 162	16 (≈ 48.1 µM)
isolate (source animal id): 163	16 (≈ 48.1 µM)
isolate (source animal id): 164	16 (≈ 48.1 µM)
isolate (source animal id): 165	> 64
isolate (source animal id): 166	≤ 8
isolate (source animal id): 167	16 (≈ 48.1 µM)
isolate (source animal id): 168	16 (≈ 48.1 µM)
isolate (source animal id): 169	16 (≈ 48.1 µM)
isolate (source animal id): 170	16 (≈ 48.1 µM)
isolate (source animal id): 171	16 (≈ 48.1 µM)
isolate (source animal id): 172	16 (≈ 48.1 µM)
isolate (source animal id): 173	16 (≈ 48.1 µM)
isolate (source animal id): 174	16 (≈ 48.1 µM)
isolate (source animal id): 175	16 (≈ 48.1 µM)
isolate (source animal id): 176	16 (≈ 48.1 µM)
isolate (source animal id): 177	32 (≈ 96.3 µM)
isolate (source animal id): 178	16 (≈ 48.1 µM)
isolate (source animal id): 179	16 (≈ 48.1 µM)
isolate (source animal id): 180	16 (≈ 48.1 µM)
isolate (source animal id): 181	> 64
isolate (source animal id): 182	16 (≈ 48.1 µM)
isolate (source animal id): 183	16 (≈ 48.1 µM)
isolate (source animal id): 184	16 (≈ 48.1 µM)
isolate (source animal id): 185	16 (≈ 48.1 µM)
isolate (source animal id): 186	16 (≈ 48.1 µM)
isolate (source animal id): 187	32 (≈ 96.3 µM)
isolate (source animal id): 188	32 (≈ 96.3 µM)
